Experiments:
Settings in all cases: 72 h
[1] = system: KCL-22
Method in brief: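 For the IC50, dose–response curves were fitted with a log-logistic model. The data came from fifteen myeloid leukaemia cell lines grown in RPMI 1640 at densities in the linear growth range and incubated in 384-well plates for 72 h at 37 °C under 5% CO2. Doses were five tenfold steps from 1 to 10,000 nM in duplicate, and luminescent ATP viability was normalised to vehicle and to a positive control at 10 µM before four-parameter fitting.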

[2] = system: HL-60; experiment: cell viability (% survival relative to DMSO control); higher = less cytotoxic
Method in brief: (§1)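 A rescreen of the full library used HL-60 cells in RPMI 1640 with 10% FBS on 384-well plates, run in duplicate at five tenfold concentrations (1–10,000 nM). Each screen included DMSO or 100 nM of one of three metabolic inhibitors and ran 72 h at 37 °C, 5% CO2. CellTiter-Glo viability was scaled between DMSO and 10 μM proteasome-inhibitor wells. Any area under the curve comes from four-parameter log-logistic fits with drc and PharmacoGx.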

[3] = system: BV-173; experiment: cell viability (% survival relative to DMSO control, bortezomib = 0%); higher = less cytotoxic
Method in brief: (§2)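 In 384-well plates pre-printed with compounds at 1, 10, 100, 1000 or 10000 nM, duplicate wells received cells from 10 AML and 5 CML lines at densities within the linear growth range. The plates stayed at 37 °C with 5% CO2 for 72 h before CellTiter-Glo luminescence was recorded. Each entry is averaged percent survival. Scaling placed vehicle at 100% and a 10 µM positive control at 0%.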

[4] = system: HEL; experiment: as above
Method in brief: as §2

[5] = system: HL-60; experiment: as above
Method in brief: as §2

[6] = system: K-562; experiment: as above
Method in brief: as §2

[7] = system: KCL-22; experiment: as above
Method in brief: as §2

[8] = system: KG-1; experiment: as above
Method in brief: as §2

[9] = system: KU-812; experiment: as above
Method in brief: as §2

[10] = system: LAMA-84; experiment: as above
Method in brief: as §2

[11] = system: ML-2; experiment: as above
Method in brief: as §2

[12] = system: MOLM-13; experiment: as above
Method in brief: as §2

[13] = system: MV4-11; experiment: as above
Method in brief: as §2

[14] = system: Mono-Mac-6; experiment: as above
Method in brief: as §2

[15] = system: NOMO-1; experiment: as above
Method in brief: as §2

[16] = system: SHI-1; experiment: as above
Method in brief: as §2

[17] = system: THP-1; experiment: as above
Method in brief: as §2

[18] = system: HL-60; experiment: area under dose-response curve (viability, 1 nM-10 uM) (fraction (0-1)); higher = more sensitive
Method in brief: as §1

Cc1cn([C@H]2C[C@H](O)[C@@H](COP(=O)(O)OP(=O)(O)O)O2)c(=O)[nH]c1=O [Thymidine diphosphate]
Settings | IC50 (cell viability) [µM]
[1] | > 10

cell viability [%], [2]
Settings | 0.001 µM | 0.01 µM | 0.1 µM | 1 µM | 10 µM
co-treatment: AZD3965 100 nM | 97.44 | 97.9 | 101 | 102 | 98.5
co-treatment: DMSO vehicle | 101 | 100.1 | 97.7 | 101 | 95.1
co-treatment: GSK2194069 100 nM | 104.9 | 75.9 | 97.8 | 104 | 95.3
co-treatment: pictilisib 100 nM | 105 | 94 | 106 | 111 | 89.1

Settings | area under dose-response curve, co-treatment: AZD3965 100 nM | area under dose-response curve, co-treatment: DMSO vehicle | area under dose-response curve, co-treatment: GSK2194069 100 nM | area under dose-response curve, co-treatment: pictilisib 100 nM | cell viability, 1 nM [%] | cell viability, 10 nM [%] | cell viability, 100 nM [%] | cell viability, 1000 nM [%] | cell viability, 10000 nM [%]
[3] | – | – | – | – | 92.3 | 83.5 | 98.2 | 78 | 39
[4] | – | – | – | – | 99.1 | 89.4 | 93.2 | 106 | 103
[5] | – | – | – | – | 88.6 | 85.2 | 87.7 | 109 | 104
[6] | – | – | – | – | 104 | 91.1 | 105 | 100 | 99.6
[7] | – | – | – | – | 111 | 89.8 | 98.3 | 97.7 | 85.6
[8] | – | – | – | – | 101 | 95.2 | 97.5 | 95.6 | 104
[9] | – | – | – | – | 88.2 | 93.6 | 109 | 96.9 | 102
[10] | – | – | – | – | 97.1 | 97.9 | 106 | 94.5 | 86.7
[11] | – | – | – | – | 95.6 | 87.9 | 95.5 | 96.4 | 106
[12] | – | – | – | – | 108 | 92.1 | 110 | 105 | 103
[13] | – | – | – | – | 95.7 | 87.8 | 98.6 | 102 | 96.4
[14] | – | – | – | – | 95.1 | 88.1 | 105 | 91.8 | 92.5
[15] | – | – | – | – | 98.1 | 99.8 | 100 | 98.6 | 95.8
[16] | – | – | – | – | 96.2 | 89.3 | 110 | 91.8 | 107
[17] | – | – | – | – | 99 | 92.5 | 95.8 | 95.7 | 99.3
[18] | < 0.0301 | < 0.0301 | < 0.0301 | < 0.0301 | – | – | – | – | –

O=C(O)c1cc(N=Nc2ccc(S(=O)(=O)Nc3ccccn3)cc2)ccc1O [Sulfasalazine]
Settings | IC50 (cell viability) [µM]
[1] | > 10

cell viability [%], [2]
Settings | 0.001 µM | 0.01 µM | 0.1 µM | 1 µM | 10 µM
co-treatment: AZD3965 100 nM | 101.5 | 109 | 96 | 97.23 | 111
co-treatment: DMSO vehicle | 101 | 101.7 | 98.9 | 100.2 | 104
co-treatment: GSK2194069 100 nM | 105 | 103 | 101 | 103 | 105
co-treatment: pictilisib 100 nM | 107 | 103 | 93.57 | 92.3 | 112

Settings | area under dose-response curve, co-treatment: AZD3965 100 nM | area under dose-response curve, co-treatment: DMSO vehicle | area under dose-response curve, co-treatment: GSK2194069 100 nM | area under dose-response curve, co-treatment: pictilisib 100 nM | cell viability, 1 nM [%] | cell viability, 10 nM [%] | cell viability, 100 nM [%] | cell viability, 1000 nM [%] | cell viability, 10000 nM [%]
[3] | – | – | – | – | 106 | 90.3 | 113 | 99.7 | 112
[4] | – | – | – | – | 111 | 91.9 | 114 | 94 | 111
[5] | – | – | – | – | 99.4 | 71.4 | 135 | 106 | 70.8
[6] | – | – | – | – | 100 | 91.6 | 120 | 90.3 | 131
[7] | – | – | – | – | 107 | 97.3 | 106 | 92.9 | 124
[8] | – | – | – | – | 103 | 89 | 112 | 43.4 | 128
[9] | – | – | – | – | 110 | 98.2 | 107 | 108 | 102
[10] | – | – | – | – | 105 | 97.1 | 101 | 106 | 105
[11] | – | – | – | – | 106 | 87.4 | 118 | 112 | 102
[12] | – | – | – | – | 105 | 102 | 113 | 84.6 | 136
[13] | – | – | – | – | 101 | 89.1 | 112 | 95.9 | 103
[14] | – | – | – | – | 105 | 92.7 | 120 | 103 | 104
[15] | – | – | – | – | 112 | 101 | 99 | 101 | 102
[16] | – | – | – | – | 107 | 87.6 | 114 | 97.8 | 95.7
[17] | – | – | – | – | 107 | 101 | 106 | 101 | 106
[18] | < 0.0301 | < 0.0301 | < 0.0301 | < 0.0301 | – | – | – | – | –

O=C1O/C(=C/Br)CCC1c1cccc2ccccc12 (stereo not given) [Bromoenol Lactone]
Settings | IC50 (cell viability) [µM]
[1] | 7.07

cell viability [%], [2]
Settings | 0.001 µM | 0.01 µM | 0.1 µM | 1 µM | 10 µM
co-treatment: AZD3965 100 nM | 95.1 | 97 | 98.2 | 96.796 | 93.5
co-treatment: DMSO vehicle | 100 | 99.8 | 100 | 96.4 | 87.9
co-treatment: GSK2194069 100 nM | 90.2 | 92.4 | 108 | 89.2 | 115
co-treatment: pictilisib 100 nM | 96.5 | 106 | 110 | 101.3 | 104

Settings | area under dose-response curve, co-treatment: AZD3965 100 nM | area under dose-response curve, co-treatment: DMSO vehicle | area under dose-response curve, co-treatment: GSK2194069 100 nM | area under dose-response curve, co-treatment: pictilisib 100 nM | cell viability, 1 nM [%] | cell viability, 10 nM [%] | cell viability, 100 nM [%] | cell viability, 1000 nM [%] | cell viability, 10000 nM [%]
[3] | – | – | – | – | 98.1 | 104 | 94.8 | 85.9 | 24.3
[4] | – | – | – | – | 105 | 103 | 91.3 | 99.8 | 41.3
[5] | – | – | – | – | 100 | 101 | 144 | 90.7 | 77.2
[6] | – | – | – | – | 102 | 106 | 98.1 | 93.5 | 46.9
[7] | – | – | – | – | 95.3 | 93.1 | 104 | 86.6 | 52.2
[8] | – | – | – | – | 97.7 | 97.7 | 101 | 89.8 | 56.6
[9] | – | – | – | – | 98.3 | 93.3 | 102 | 86.1 | 45.8
[10] | – | – | – | – | 101 | 99.2 | 99.9 | 95.9 | 74
[11] | – | – | – | – | 102 | 100 | 94.6 | 92.9 | 59.7
[12] | – | – | – | – | 96.5 | 94 | 112 | 91.5 | 44.1
[13] | – | – | – | – | 99 | 106 | 105 | 92.4 | 45.8
[14] | – | – | – | – | 98.4 | 102 | 93.8 | 95.6 | 52.7
[15] | – | – | – | – | 108 | 100 | 100 | 82.7 | 40.4
[16] | – | – | – | – | 102 | 92.9 | 108 | 91.2 | 83.2
[17] | – | – | – | – | 97.3 | 97.6 | 92.3 | 81.4 | 44.7
[18] | < 0.0301 | < 0.0301 | < 0.0301 | < 0.0301 | – | – | – | – | –

Reference: the supplement of paper PMC8671470
